This note sets out measurements from US20060293223A1 (Eli Lilly and Company Patent Division, priority 2003, published 2006).

The test system of the assay is MC1/MC4. Conditions: ratio MC1/MC4.

Positions of bridges follow the written chain, without caps; N, C: chain ends. Non-standard residues stand in square brackets, D forms with d. No end group written: not given here. NMeY = CN[C@@H](Cc1ccc(O)cc1)C(=O)O; hCys = N[C@@H](CCS)C(=O)O
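Note: ratio of EC50 values obtained at MC1 versus MC4 receptors, with MC1 potency measured by luciferase reporter activity in stably transfected cells expressing human MC1.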

Turning to “N-cyclopentanecarbonyl-cyclo[hCys-His-D-Phe-Arg-Trp-penicillamine]-NH2 [Compound 171]”, the MC1/MC4 selectivity was 75.11. Regarding “N-cyclopropanecarbonyl-cyclo[hCys-His-D-Phe-Arg-Trp-Cys]-NH2 [Compound 141]”, the MC1/MC4 selectivity turned out to be 83.00. Then “N-glutaryl-Tyr-Arg-cyclo[Cys-Glu-His-D-Phe-Arg-Trp-Cys]-NH2 [Compound 75]”, with 6.00. In the case of “N-glutaryl-Tyr-Arg-cyclo[Cys-Glu-His-D-Phe-Arg-Trp-Cys]-OH [Compound 76]”, the MC1/MC4 selectivity is 6.00.

In the case of “N-hexanoyl-cyclo[hCys-His-D-Phe-Arg-Trp-Cys]-NH2 [Compound 145]”, the MC1/MC4 selectivity turned out to be 3.82.

Regarding “N-hexanoyl-cyclo[hCys-His-D-Phe-Arg-Trp-penicillamine]-NH2 [Compound 170]”, the MC1/MC4 selectivity came out at 9.00. For the substance “N-phenylsulfonyl-cyclo[hCys-His-D-Phe-Arg-Trp-Cys]-NH2 [Compound 150]”, the MC1/MC4 selectivity came out at 12.88. On to “N-propionyl-cyclo[Cys-Glu-His-D-Phe-Arg-Trp-Cys]-NH2 [Compound 37]”, for which the MC1/MC4 selectivity turned out to be 36.99. In the case of “N-succinyl-Tyr-Arg-cyclo[Cys-Glu-His-D-Phe-Arg-Trp-Cys]-NH2 [Compound 74]”, the MC1/MC4 selectivity is 12.00.

Consider “N-succinyl-Tyr-Arg-cyclo[Cys-Glu-His-D-Phe-Arg-Trp-Cys]-OH [Compound 131]”, for which the MC1/MC4 selectivity came to 7.00. The figure for “N-valeryl-cyclo[Cys-Glu-His-D-Phe-Arg-Trp-Cys]-NH2 [Compound 39]” is 19.67.

Consider “RCH[dF]RW[hCys]-NH2 (disulfide 2-7) [Compound 186]”, for which the MC1/MC4 selectivity turned out to be 11.44. The figure for “R[hCys]H[dF]RWC-NH2 (disulfide 2-7) [Compound 153]” is 41.81; for “R[hCys]H[dF]RWC-OH (disulfide 2-7) [Compound 155]” it is 55.84. For the substance “Tyr-Arg-cyclo[Cys-Glu-His-D-Phe-Arg-Trp-Cys]-NH2 [Compound 68]”, the MC1/MC4 selectivity is reported as 14.08. The figure for “Tyr-Arg-cyclo[Cys-Glu-His-D-Phe-Arg-Trp-Cys]-NH—(CH2)6—NH2 [Compound 70]” is 2.00; for “Tyr-Arg-cyclo[Cys-Glu-His-D-Phe-Arg-Trp-Cys]-OH [Compound 69]” it is 18.38.

For the substance “YRCEH[dF]RWCE-NH2 (disulfide 3-9) [Compound 71]”, the MC1/MC4 selectivity turned out to be 5.13. For the substance “YRCGH[dF]RWC-NH2 (disulfide 3-9) [Compound 11]”, the MC1/MC4 selectivity is reported as 11.00.

In the case of “YR[hCys]H[dF]RWC-NH2 (disulfide 3-8) [Compound 162]”, the MC1/MC4 selectivity is 30.07. The figure for “YR[hCys]H[dF]RWC-OH (disulfide 3-8) [Compound 163]” is 19.46; for “[NMeY]RCMH[dF]RWC-NH2 (disulfide 3-9) [Compound 17]” it is 10.42. Then “[dR][hCys]H[dF]RWC-NH2 (disulfide 2-7) [Compound 154]”, with 36.00; and “cyclo[3-thiopropionyl-His-D-Phe-Arg-Trp-hCys]-NH2 [Compound 179]”, with 5.35; and “cyclo[Cys-Glu-His-D-Phe-Arg-Trp-Cys]-NH2 [Compound 29]”, with 15.00. For the substance “cyclo[Cys-His-(4-Cl-D-Phe)-Arg-Trp-hCys]-NH2 [Compound 182]”, the MC1/MC4 selectivity was 185.74. Regarding “cyclo[Cys-His-(4-F-D-Phe)-Arg-Trp-hCys]-NH2 [Compound 181]”, the MC1/MC4 selectivity turned out to be 45.25. With “cyclo[Cys-His-D-Phe-Arg-Trp-hCys]-NH2 [Compound 180]”, the MC1/MC4 selectivity came out at 30.38. As to “cyclo[hCys-His-(4-Cl-D-Phe)-Arg-Trp-Cys]-NH2 [Compound 135]”, the MC1/MC4 selectivity is 120.27. On to “cyclo[hCys-His-(4-F-D-Phe)-Arg-Trp-Cys]-NH2 [Compound 134]”, for which the MC1/MC4 selectivity worked out at 68.42.

Consider “cyclo[hCys-His-D-Phe-Arg-Trp-Cys]-NH2 [Compound 132]”, for which the MC1/MC4 selectivity was found to be 77.32. In the case of “cyclo[hCys-His-D-Phe-Arg-Trp-Cys]-OH [Compound 133]”, the MC1/MC4 selectivity turned out to be 31.29. The figure for “phenylsulfonyl-Gly-cyclo[hCys-His-D-Phe-Arg-Trp-Cys]-NH2 [Compound 161]” is 2.18.
